Tests used:
corn [1] = test: Test C preemergence; assay type: in vivo, Zea mays; settings: 0 to 100 scale (0 no effect, 100 complete control)
Summary of the method: (§1)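 Seeds sown in loam soil–sand blend received a directed preemergence soil spray of test chemical in non-phytotoxic solvent with surfactant; postemergence plants (2–10 cm, one- to two-leaf stage) were sprayed with the same formulation. Greenhouse-held 10 days, then visually rated for injury versus untreated controls, 0 (no effect) to 100 (complete control).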

kochia [2] = test: Test C postemergence; assay type: in vivo, Bassia scoparia; settings: 10 days
Summary of the method: as §1

barnyardgrass [3] = test: Test D flooded paddy test; assay type: in vivo, Echinochloa crus-galli; settings: 250 g ai/ha, applied to paddy water, visual rating after 13 to 14 days, scale 0 to 100 (0 no effect, 100 complete control)
Summary of the method: (§2)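 Plants at the 2-leaf stage were grown in pots flooded to 3 cm, and compound was applied directly into the paddy water, with depth kept throughout. After 13–14 days in a greenhouse, injury was rated visually against untreated controls on a 0–100 scale (100 = complete control); a dash means not tested.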

ryegrass, Italian [4] = test: Test C postemergence; assay type: in vivo, Lolium multiflorum; settings: 10 days
Summary of the method: as §1

ryegrass, Italian [5] = test: Test C preemergence; assay type: in vivo, Lolium multiflorum; settings: 0 to 100 scale (0 no effect, 100 complete control)
Summary of the method: as §1

blackgrass [6] = test: Test C postemergence; assay type: in vivo, Alopecurus myosuroides; settings: 10 days
Summary of the method: as §1

barnyardgrass [7] = test: Test C postemergence; assay type: in vivo, Echinochloa crusgalli; settings: 10 days
Summary of the method: as §1

barnyardgrass [8] = test: Test C preemergence; assay type: in vivo, Echinochloa crusgalli; settings: 0 to 100 scale (0 no effect, 100 complete control)
Summary of the method: as §1

wheat [9] = test: Test C preemergence; assay type: in vivo, Triticum aestivum; settings: 0 to 100 scale (0 no effect, 100 complete control)
Summary of the method: as §1

oat, wild [10] = test: Test C postemergence; assay type: in vivo, Avena fatua; settings: 10 days
Summary of the method: as §1

soybean [11] = test: Test C postemergence; assay type: in vivo, Glycine max; settings: 10 days
Summary of the method: as §1

kochia [12] = test: Test C preemergence; assay type: in vivo, Bassia scoparia; settings: 0 to 100 scale (0 no effect, 100 complete control)
Summary of the method: as §1

wheat [13] = test: Test C postemergence; assay type: in vivo, Triticum aestivum; settings: 10 days
Summary of the method: as §1

ragweed [14] = test: Test C postemergence; assay type: in vivo, Ambrosia artemisiifolia; settings: 10 days
Summary of the method: as §1

ducksalad = test: Test D flooded paddy test; assay type: in vivo, Heteranthera limosa; settings: 250 g ai/ha, applied to paddy water, visual rating after 13 to 14 days, scale 0 to 100 (0 no effect, 100 complete control)
Summary of the method: as §2

rice = test: Test D flooded paddy test; assay type: in vivo, Oryza sativa; settings: 250 g ai/ha, applied to paddy water, visual rating after 13 to 14 days, scale 0 to 100 (0 no effect, 100 complete control)
Summary of the method: as §2

sedge, umbrella = test: Test D flooded paddy test; assay type: in vivo, Cyperus difformis; settings: 250 g ai/ha, applied to paddy water, visual rating after 13 to 14 days, scale 0 to 100 (0 no effect, 100 complete control)
Summary of the method: as §2

pigweed, palmer [15] = test: Test C preemergence; assay type: in vivo, Amaranthus palmeri; settings: 0 to 100 scale (0 no effect, 100 complete control)
Summary of the method: as §1

galium = test: Test C postemergence; assay type: in vivo, Galium aparine; settings: 10 days
Summary of the method: as §1

ragweed [16] = test: Test C preemergence; assay type: in vivo, Ambrosia artemisiifolia; settings: 0 to 100 scale (0 no effect, 100 complete control)
Summary of the method: as §1

green foxtail [17] = test: Test C postemergence; assay type: in vivo, Setaria viridis; settings: 10 days
Summary of the method: as §1

horseweed = test: Test C postemergence; assay type: in vivo, Erigeron canadensis; settings: 10 days
Summary of the method: as §1

soybean [18] = test: Test C preemergence; assay type: in vivo, Glycine max; settings: 0 to 100 scale (0 no effect, 100 complete control)
Summary of the method: as §1

corn [19] = test: Test C postemergence; assay type: in vivo, Zea mays; settings: 10 days
Summary of the method: as §1

blackgrass [20] = test: Test C preemergence; assay type: in vivo, Alopecurus myosuroides; settings: 0 to 100 scale (0 no effect, 100 complete control)
Summary of the method: as §1

oat, wild [21] = test: Test C preemergence; assay type: in vivo, Avena fatua; settings: 0 to 100 scale (0 no effect, 100 complete control)
Summary of the method: as §1

green foxtail [22] = test: Test C preemergence; assay type: in vivo, Setaria viridis; settings: 0 to 100 scale (0 no effect, 100 complete control)
Summary of the method: as §1

pigweed, palmer [23] = test: Test C postemergence; assay type: in vivo, Amaranthus palmeri; settings: 10 days
Summary of the method: as §1

[24] = Preemergence, 500 g ai/ha, visual rating after 10 days
[25] = Test C, preemergence, 125 g ai/ha
[26] = 125 g ai/ha, postemergence, 0 to 100 scale, 0 no effect, 100 complete control
[27] = Postemergence, 500 g ai/ha, visual 0 to 100 scale (0 no effect, 100 complete control)

Compound: C[C@H]1CN(C(=O)c2cc(-n3cnc(C4CCC4)n3)cc3c2OCCO3)c2cccc(Cl)c2O1 [Compound 157]
- Plant response rating, Corn (corn [1]; [24]): 0
- Corn plant response rating (corn [1]; [25]): 0
- Plant response rating, Kochia (kochia [2]; [26]): 90
- Plant response rating, Kochia (kochia [2]; [27]): 100
- Plant response rating, Barnyardgrass (Flood) (barnyardgrass [3]): 15
- Plant response rating, Ryegrass, Italian (ryegrass, Italian [4]; [26]): 30
- Plant response rating, Ryegrass, Italian (ryegrass, Italian [4]; [27]): 80
- Plant response rating, Ryegrass, Italian (ryegrass, Italian [5]; [24]): 90
- Ryegrass, Italian plant response rating (ryegrass, Italian [5]; [25]): 70
- Plant response rating, Blackgrass (blackgrass [6]; [26]): 60
- Plant response rating, Blackgrass (blackgrass [6]; [27]): 70
- Plant response rating, Barnyardgrass (barnyardgrass [7]; [26]): 30
- Plant response rating, Barnyardgrass (barnyardgrass [7]; [27]): 70
- Barnyardgrass plant response rating (barnyardgrass [8]; 125 g ai/ha, preemergence): 50
- Plant response rating, Barnyardgrass (barnyardgrass [8]; [24]): 90
- Plant response rating, Wheat (wheat [9]; [24]): 30
- Wheat plant response rating (wheat [9]; [25]): 0
- Plant response rating, Oat, Wild (oat, wild [10]; [26]): 20
- Plant response rating, Oat, Wild (oat, wild [10]; [27]): 20
- Plant response rating, Soybean (soybean [11]; [26]): 100
- Plant response rating, Soybean (soybean [11]; [27]): 100
- Plant response rating, Kochia (kochia [12]; [24]): 90
- Kochia plant response rating (kochia [12]; [25]): 20
- Plant response rating, Wheat (wheat [13]; [26]): 20
- Plant response rating, Wheat (wheat [13]; [27]): 30
- Plant response rating, Ragweed (ragweed [14]; [26]): 100
- Plant response rating, Ragweed (ragweed [14]; [27]): 100
- Plant response rating, Ducksalad (Flood) (ducksalad): 0
- Plant response rating, Rice (Flood) (rice): 20
- Plant response rating, Sedge, Umbrella (Flood) (sedge, umbrella): 45
- Plant response rating, Pigweed, Palmer (pigweed, palmer [15]; [24]): 100
- Pigweed, Palmer plant response rating (pigweed, palmer [15]; [25]): 100
- Plant response rating, Galium (galium; [26]): 100
- Plant response rating, Galium (galium; [27]): 100
- Plant response rating, Ragweed (ragweed [16]; [24]): 80
- Ragweed plant response rating (ragweed [16]; [25]): 90
- Plant response rating, Foxtail, Green (green foxtail [17]; [26]): 70
- Plant response rating, Foxtail, Green (green foxtail [17]; [27]): 90
- Plant response rating, Horseweed (horseweed; [26]): 30
- Plant response rating, Horseweed (horseweed; [27]): 90
- Plant response rating, Soybean (soybean [18]; [24]): 60
- Soybean plant response rating (soybean [18]; [25]): 50
- Plant response rating, Corn (corn [19]; [26]): 10
- Plant response rating, Corn (corn [19]; [27]): 20
- Plant response rating, Blackgrass (blackgrass [20]; [24]): 30
- Blackgrass plant response rating (blackgrass [20]; [25]): 30
- Plant response rating, Oat, Wild (oat, wild [21]; [24]): 50
- Oat, Wild plant response rating (oat, wild [21]; [25]): 0
- Plant response rating, Foxtail, Green (green foxtail [22]; [24]): 100
- Foxtail, Green plant response rating (green foxtail [22]; [25]): 100
- Plant response rating, Pigweed, Palmer (pigweed, palmer [23]; [26]): 90
- Plant response rating, Pigweed, Palmer (pigweed, palmer [23]; [27]): 100
